In assay [1] the test system is Mu-opioid receptor. Description: Opioid sensor (cpGFP in Loop3 of the Mu-opioid receptor) response in HEK293T cells. Type of assay: cell-based, human.
Assay [2] has as its target Beta2AR with a cpGFP integrated into the third intracellular loop (Homo sapiens, UniProt P07550).
The target of assay [3] is 5HT2A receptor (Homo sapiens, UniProt P28223, DEL264-288/DEL297-315/INS291[…]/INS295[…]/K293E/S316L). The assay can be described thus: 5HT2A receptor sensor with universal module 2, fluorescence response. Type of assay: cell-based. The following applies: universal module 2 in 5HT2A receptor.
Assay [4] addresses T1, B2AR (Homo sapiens, UniProt P07550, C265Q/D251A/E249T/E27Q/F240D/F264D/G16R/G238K/G257K/INS236[…]/INS254[…]/K235L/K263H/N244L/Q243V/Q247F/Q250A/R253I/R259E/R260Y/S246E/S261N/S262N/V242M).
T1 construct: expressed in transfected cells
Type of assay: cell-based. To be noted: universal module 1 in B2AR; 10 μM.

Assay [5] has as its target B2AR (Homo sapiens, UniProt P07550, C265Q/D251A/E249T/E27Q/F240D/F264D/G16R/G238K/G257K/INS233[…]/INS254[…]/K232L/K235P/K263H/L230S/N244L/Q229L/Q231S/Q243V/Q247F/Q250A/R253I/R259E/R260Y/S236N/S246E/S261N/S262N/V242M). Description: B2AR sensor with universal module 2, fluorescence response. The format is cell-based. To be noted: inserted into EAKR-deleted third intracellular loop residues-KEHK of B2AR.

Sequence of 5HT2A receptor (P28223 with tags, fused parts or gaps with the stated changes): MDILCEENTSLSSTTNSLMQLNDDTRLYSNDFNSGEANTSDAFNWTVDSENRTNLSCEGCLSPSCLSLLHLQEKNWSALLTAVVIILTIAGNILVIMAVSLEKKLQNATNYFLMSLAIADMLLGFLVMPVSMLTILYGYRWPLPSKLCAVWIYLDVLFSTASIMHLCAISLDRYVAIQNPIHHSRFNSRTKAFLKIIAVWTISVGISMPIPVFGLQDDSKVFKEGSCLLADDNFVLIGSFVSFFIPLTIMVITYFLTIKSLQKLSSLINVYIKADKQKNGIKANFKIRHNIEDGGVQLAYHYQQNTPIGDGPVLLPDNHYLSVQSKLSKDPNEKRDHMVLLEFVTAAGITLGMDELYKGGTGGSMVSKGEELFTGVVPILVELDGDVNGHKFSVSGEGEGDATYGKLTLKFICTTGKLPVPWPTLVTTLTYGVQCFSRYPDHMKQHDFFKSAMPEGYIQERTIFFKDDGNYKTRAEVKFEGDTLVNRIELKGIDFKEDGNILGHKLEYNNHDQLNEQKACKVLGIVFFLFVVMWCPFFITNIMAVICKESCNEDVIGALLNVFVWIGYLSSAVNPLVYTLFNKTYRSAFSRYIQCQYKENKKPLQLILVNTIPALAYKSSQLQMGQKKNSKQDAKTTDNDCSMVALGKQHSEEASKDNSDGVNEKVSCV

Consider `C[C@@H](NC(=O)[C@@H](N)Cc1ccc(O)cc1)C(=O)NCC(=O)N(C)[C@@H](Cc1ccccc1)C(=O)NCCO` [DAMGO], for which, in assay [1] (10 μM), the “positive ΔF/F” value stood at […]. Also, in assay [1] (HEK293T cell, drug/response curve, read-out: apparent Kd), the Kd was […].
Take `NCCc1ccc(O)c(O)c1` [Dopamine]: in assay [2] (50 μM, non-Beta2AR ligands), the “specific response of the sensor” value is “did not detect any specific response”.
Turning to `NCCc1c[nH]c2ccc(O)cc12` [Serotonin], the ΔF/F response in assay [3] is around 30%.
In turn, `NC[C@H](O)c1ccc(O)c(O)c1` [norepinephrine] displayed a τ½ON in assay [2] (time constant of association, saturating conditions (1 μM drug)) of 29.62 s. For the same molecule, in assay [2] (time constant of dissociation, saturating conditions (1 μM drug)), the τ½OFF worked out at 106.91 s. The molecule further registered a ΔF/F in assay [4] of 150%.
In assay [5], LSSLI-cpGFP-NHDQL [Universal module 2] showed a ΔF/F of 100%.

The record behind these values is patent US12459985B2, “G-protein-coupled receptor internal sensors” (THE REGENTS OF THE UNIVERSITY OF CALIFORNIA, priority 2016, dated 2025).
